The record followed here is patent US20100311714A1, “1H-IMIDAZO[4,5-c]QUINOLINONE COMPOUNDS” (priority 2009, published 2010).

Where two headings read alike, the source gives them in different places.

The target of assay [1] is T1, mTOR (Homo sapiens, UniProt P42345).
T1 construct: purchased Invitrogen Corporation (Carlsbad/Calif., USA) PV4753
Briefly: Biochemical assay for m-TOR by TR-FRET. In short, it runs like this: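 mTOR (0.5 nM) phosphorylates GFP-4EBP1 (400 nM) with 8 μM ATP at rt in 50 mM HEPES pH 7.5, 10 mM MnCl2, 50 mM NaCl, 1 mM EGTA, 1 mM DTT; compounds 0.003–10 μM final. EDTA stop with Tb-anti-p4EBP1[pT46] antibody (0.5 nM); TR-FRET read after 15 min against no-enzyme and vehicle controls.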
On the technique in general: In TR-FRET formats the signal depends on donor and acceptor labels being close together.

The target of assay [2] is T2, PI3K delta (Homo sapiens, UniProt O00329).
T2 construct: for the full-length p110-d subunit are generated and fused by overlapping PCR; His tag (C); made in house; host or cells: baculovirus BV1060; Tn5 (Trichoplusia ni) or TiniPro insect cells
Briefly: PI3K delta kinase assay (Kinase-Glo luminescence). The class given is biochemical. The method, boiled down: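 Kinase-Glo ATP-depletion luminescence using 10 nM p85(iSH2)-linker-p110δ full-length His-tag construct from insect cells, with 1 μM ATP and 10 μg/mL phosphatidylinositol in 10 mM Tris pH 7.5, 3 mM MgCl2, 50 mM NaCl, 0.05% CHAPS, 1 mM DTT. 60 min room temperature; IC50 from 4-parameter logistic fit over 8 concentrations.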
(In general: Kinase-Glo reads ATP consumption through a luciferase reaction.)

T1 sequence (P42345 1360-2549 limits assumed): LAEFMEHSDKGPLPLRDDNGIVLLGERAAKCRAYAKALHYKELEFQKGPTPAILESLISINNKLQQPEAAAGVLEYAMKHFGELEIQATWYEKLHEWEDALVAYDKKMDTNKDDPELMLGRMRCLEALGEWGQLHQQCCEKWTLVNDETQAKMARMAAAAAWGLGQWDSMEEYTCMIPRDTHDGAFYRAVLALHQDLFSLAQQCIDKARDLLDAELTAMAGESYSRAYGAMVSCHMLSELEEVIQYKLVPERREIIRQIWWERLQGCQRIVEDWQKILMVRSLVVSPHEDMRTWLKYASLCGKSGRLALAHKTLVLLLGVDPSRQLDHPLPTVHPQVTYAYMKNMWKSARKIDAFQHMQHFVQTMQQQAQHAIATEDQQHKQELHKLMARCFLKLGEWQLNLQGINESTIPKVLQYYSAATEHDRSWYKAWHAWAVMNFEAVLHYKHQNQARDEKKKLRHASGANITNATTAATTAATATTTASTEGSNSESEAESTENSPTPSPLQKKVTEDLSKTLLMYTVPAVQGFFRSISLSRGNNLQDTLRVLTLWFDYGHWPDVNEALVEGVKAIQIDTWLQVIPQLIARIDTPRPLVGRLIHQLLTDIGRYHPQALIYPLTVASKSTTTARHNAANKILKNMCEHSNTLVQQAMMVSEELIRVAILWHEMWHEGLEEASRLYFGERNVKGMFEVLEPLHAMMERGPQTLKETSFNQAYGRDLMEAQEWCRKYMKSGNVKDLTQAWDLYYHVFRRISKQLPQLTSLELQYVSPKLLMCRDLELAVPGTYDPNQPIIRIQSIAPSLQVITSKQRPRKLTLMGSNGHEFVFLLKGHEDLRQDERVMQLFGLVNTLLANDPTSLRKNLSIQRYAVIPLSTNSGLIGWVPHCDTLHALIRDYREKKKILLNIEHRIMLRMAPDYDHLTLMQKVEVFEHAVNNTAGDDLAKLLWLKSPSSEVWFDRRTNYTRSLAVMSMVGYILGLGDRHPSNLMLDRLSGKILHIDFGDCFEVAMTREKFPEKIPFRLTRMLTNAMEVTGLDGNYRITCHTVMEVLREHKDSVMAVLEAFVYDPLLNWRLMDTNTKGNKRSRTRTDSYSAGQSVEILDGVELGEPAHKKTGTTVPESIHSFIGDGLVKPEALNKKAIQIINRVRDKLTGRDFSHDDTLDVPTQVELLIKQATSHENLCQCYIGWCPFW
T2 sequence (O00329 with tags, fused parts or gaps limits assumed): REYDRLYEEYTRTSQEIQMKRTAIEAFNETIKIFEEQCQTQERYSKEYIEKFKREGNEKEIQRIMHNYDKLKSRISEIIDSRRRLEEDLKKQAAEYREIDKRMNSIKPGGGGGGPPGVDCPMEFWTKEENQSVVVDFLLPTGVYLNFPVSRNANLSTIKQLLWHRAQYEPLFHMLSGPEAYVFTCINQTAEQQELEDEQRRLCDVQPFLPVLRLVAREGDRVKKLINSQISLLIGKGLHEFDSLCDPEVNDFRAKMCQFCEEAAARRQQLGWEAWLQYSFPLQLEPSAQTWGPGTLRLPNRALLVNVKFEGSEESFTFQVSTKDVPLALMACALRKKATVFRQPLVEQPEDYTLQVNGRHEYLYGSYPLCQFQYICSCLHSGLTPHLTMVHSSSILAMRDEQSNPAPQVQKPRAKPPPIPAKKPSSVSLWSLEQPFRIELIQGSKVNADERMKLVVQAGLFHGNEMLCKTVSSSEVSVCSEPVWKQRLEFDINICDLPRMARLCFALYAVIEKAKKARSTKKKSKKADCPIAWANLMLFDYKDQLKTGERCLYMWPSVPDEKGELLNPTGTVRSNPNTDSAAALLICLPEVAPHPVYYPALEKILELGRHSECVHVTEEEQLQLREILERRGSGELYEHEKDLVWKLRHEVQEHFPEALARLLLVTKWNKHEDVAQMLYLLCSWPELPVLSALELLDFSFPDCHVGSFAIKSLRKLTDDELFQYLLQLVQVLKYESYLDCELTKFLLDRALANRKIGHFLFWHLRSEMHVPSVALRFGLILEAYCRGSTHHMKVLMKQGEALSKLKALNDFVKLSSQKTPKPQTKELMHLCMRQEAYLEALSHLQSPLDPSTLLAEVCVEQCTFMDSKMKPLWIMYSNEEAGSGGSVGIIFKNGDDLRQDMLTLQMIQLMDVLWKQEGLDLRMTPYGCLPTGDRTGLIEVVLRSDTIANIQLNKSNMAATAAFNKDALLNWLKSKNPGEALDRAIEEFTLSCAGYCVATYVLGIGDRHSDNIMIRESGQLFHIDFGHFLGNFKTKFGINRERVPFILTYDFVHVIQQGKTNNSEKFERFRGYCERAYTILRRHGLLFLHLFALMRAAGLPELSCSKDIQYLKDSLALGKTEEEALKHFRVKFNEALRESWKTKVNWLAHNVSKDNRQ

Turning to `Cc1ncccc1-n1c(=O)n(C)c2cnc3ccc(-c4cnc5c(ccn5C)c4)cc3c21` [Example 2.14, 3-Methyl-1-(2-methyl-pyridin-3-yl)-8-(1-methyl-1H-pyrrolo[2,3-b]pyridin-5-yl)-1,3-dihydro-imidazo[4,5-c]quinolin-2-one], the IC50 in assay [1] (read-out: mTOR/IC50) came out at 24 nM; in assay [2] (read-out: PI3Kdelta/IC50), 57 nM.
Take `CCOc1cc(-c2ccc3ncc4c(c3c2)n(-c2cccnc2C)c(=O)n4C)cnc1C` [Example 2.22, 8-(5-Ethoxy-6-methyl-pyridin-3-yl)-3-methyl-1-(2-methyl-pyridin-3-yl)-1,3-dihydro-imidazo[4,5-c]quinolin-2-one]: the IC50 in assay [1] (read-out: EPK_mTOR/IC50) was determined as 80 nM; in assay [2] (read-out: EPK_PI3Kdelta/IC50) it was 61 nM.
In the case of `Cc1cccnc1-n1c(=O)n(C)c2cnc3ccc(-c4cnc5ccccc5c4)cc3c21` [Example 3.8, 3-Methyl-1-(3-methyl-pyridin-2-yl)-8-quinolin-3-yl-1,3-dihydro-imidazo[4,5-c]quinolin-2-one], the IC50 in assay [1] (read-out: mTOR/IC50) stood at 544 nM; in assay [2] (read-out: PI3Kdelta/IC50) it was 264 nM.
The matching figures for `COc1ccc(-c2ccc3ncc4c(c3c2)n(-c2cccnc2)c(=O)n4C)cc1OC` [Example 5.2, 8-(3,4-Dimethoxy-phenyl)-3-methyl-1-pyridin-3-yl-1,3-dihydro-imidazo[4,5-c]quinolin-2-one]: 232 nM and 72 nM.
Regarding `COc1ccc(-c2ccc3ncc4c(c3c2)n(-c2cccnc2)c(=O)n4C)cn1` [Example 5.4, 8-(6-Methoxy-pyridin-3-yl)-3-methyl-1-pyridin-3-yl-1,3-dihydro-imidazo[4,5-c]quinolin-2-one], the IC50 in assay [1] (read-out: mTOR/IC50) worked out at 115 nM; in assay [2] (read-out: PI3Kdelta/IC50), 39 nM.
On to `CCNc1cc(-c2ccc3ncc4c(c3c2)n(-c2ccc(F)nc2C)c(=O)n4C)cnc1CO` [Example 7.9, 8-(5-Ethylamino-6-hydroxymethyl-pyridin-3-yl)-1-(6-fluoro-2-methyl-pyridin-3-yl)-3-methyl-1,3-dihydro-imidazo[4,5-c]quinolin-2-one], for which the IC50 was under 3 nM in assay [1] (read-out: EPK_mTOR/IC50) and 36 nM in assay [2] (read-out: EPK_PI3Kdelta/IC50).
For the compound `CNc1cc(-c2ccc3ncc4c(c3c2)n(-c2ccc(F)nc2C)c(=O)n4C)cnc1CO` [Example 7.11, 1-(6-Fluoro-2-methyl-pyridin-3-yl)-8-(6-hydroxymethyl-5-methylamino-pyridin-3-yl)-3-methyl-1,3-dihydro-imidazo[4,5-c]quinolin-2-one], the figures for the IC50 in assay [1] (read-out: EPK_mTOR/IC50) and in assay [2] (read-out: EPK_PI3Kdelta/IC50) were 11 nM and 26 nM, respectively.
`CNc1ncc(-c2ccc3ncc4c(c3c2)n(-c2ccc(F)nc2C)c(=O)n4C)cc1F` [Example 7.12, 8-(5-Fluoro-6-methylamino-pyridin-3-yl)-1-(6-fluoro-2-methyl-pyridin-3-yl)-3-methyl-1,3-dihydro-imidazo[4,5-c]quinolin-2-one]: the values for the IC50 in assay [1] (read-out: EPK_mTOR/IC50) and in assay [2] (read-out: EPK_PI3Kdelta/IC50) were 66 nM and 12 nM, respectively.
Regarding `CNc1ncc(-c2ccc3ncc4c(c3c2)n(-c2ccc(F)nc2C)c(=O)n4C)cc1C(F)(F)F` [Example 7.13, 1-(6-Fluoro-2-methyl-pyridin-3-yl)-3-methyl-8-(6-methylamino-5-trifluoromethyl-pyridin-3-yl)-1,3-dihydro-imidazo[4,5-c]quinolin-2-one], the results for the IC50 in assay [1] (read-out: EPK_mTOR/IC50) and in assay [2] (read-out: EPK_PI3Kdelta/IC50) were 67 nM and 3 nM, respectively.
On to `CNC(=O)c1cc(-c2ccc3ncc4c(c3c2)n(-c2ccc(F)nc2C)c(=O)n4C)cnc1N` [Example 7.14, 2-Amino-5-[1-(6-fluoro-2-methyl-pyridin-3-yl)-3-methyl-2-oxo-2,3-dihydro-1H-imidazo[4,5-c]quinolin-8-yl]-N-methyl-nicotinamide], for which the results for the IC50 in assay [1] (read-out: EPK_mTOR/IC50) and in assay [2] (read-out: EPK_PI3Kdelta/IC50) were 251 nM and 5 nM, respectively.
Regarding `CCOCc1cc(-c2ccc3ncc4c(c3c2)n(-c2ccc(F)nc2C)c(=O)n4C)cnc1N` [Example 7.15, 8-(6-Amino-5-ethoxymethyl-pyridin-3-yl)-1-(6-fluoro-2-methyl-pyridin-3-yl)-3-methyl-1,3-dihydro-imidazo[4,5-c]quinolin-2-one], the IC50 in assay [1] (read-out: EPK_mTOR/IC50) worked out at 426 nM; in assay [2] (read-out: EPK_PI3Kdelta/IC50) it was 37 nM.
For `Cc1nc(F)ccc1-n1c(=O)n(C)c2cnc3ccc(-c4cncc(N)c4)cc3c21` [Example 7.16, 8-(5-Amino-pyridin-3-yl)-1-(6-fluoro-2-methyl-pyridin-3-yl)-3-methyl-1,3-dihydro-imidazo[4,5-c]quinolin-2-one] the same measures were 110 nM and 56.5 nM.
Turning to `Cc1nc(F)ccc1-n1c(=O)n(C)c2cnc3ccc(-c4cnc(N)c(CO)c4)cc3c21` [Example 7.17, 8-(6-Amino-5-hydroxymethyl-pyridin-3-yl)-1-(6-fluoro-2-methyl-pyridin-3-yl)-3-methyl-1,3-dihydro-imidazo[4,5-c]quinolin-2-one], the IC50 in assay [1] (read-out: EPK_mTOR/IC50) is 80 nM; in assay [2] (read-out: EPK_PI3Kdelta/IC50) it was 20 nM.
As for `COCCOc1cc(-c2ccc3ncc4c(c3c2)n(-c2ccc(OC)nc2OC)c(=O)n4C)cnc1C` [Example 8.9, 1-(2,6-Dimethoxy-pyridin-3-yl)-8-[5-(2-methoxy-ethoxy)-6-methyl-pyridin-3-yl]-3-methyl-1,3-dihydro-imidazo[4,5-c]quinolin-2-one], the IC50 in assay [1] (read-out: EPK_mTOR/IC50) turned out to be 10 nM; in assay [2] (read-out: EPK_PI3Kdelta/IC50), 14 nM.
For `COc1ccc(-n2c(=O)n(C)c3cnc4ccc(-c5ccc6nccn6c5)cc4c32)c(OC)n1` [Example 8.10, 1-(2,6-Dimethoxy-pyridin-3-yl)-8-imidazo[1,2-a]pyridin-6-yl-3-methyl-1,3-dihydro-imidazo[4,5-c]quinolin-2-one], the values for the IC50 in assay [1] (read-out: EPK_mTOR/IC50) and in assay [2] (read-out: EPK_PI3Kdelta/IC50) were 470 nM and 192 nM, respectively.
Turning to `COCc1ncc(-c2ccc3ncc4c(c3c2)n(-c2ccc(OC)nc2OC)c(=O)n4C)cc1OC` [Example 8.12, 1-(2,6-Dimethoxy-pyridin-3-yl)-8-(5-methoxy-6-methoxymethyl-pyridin-3-yl)-3-methyl-1,3-dihydro-imidazo[4,5-c]quinolin-2-one], the IC50 in assay [1] (read-out: EPK_mTOR/IC50) came out at 17 nM; in assay [2] (read-out: EPK_PI3Kdelta/IC50), 42 nM.
In the case of `COc1nc(N2CCNCC2)ccc1-n1c(=O)n(C)c2cnc3ccc(-c4cnc(N(C)C)nc4)cc3c21` [Example 9.4, 8-(2-Dimethylamino-pyrimidin-5-yl)-1-(2-methoxy-6-piperazin-1-yl-pyridin-3-yl)-3-methyl-1,3-dihydro-imidazo[4,5-c]quinolin-2-one], the IC50 in assay [1] (read-out: EPK_mTOR/IC50) amounted to 9 nM; in assay [2] (read-out: EPK_PI3Kdelta/IC50), 17 nM.
For `CCNc1cc(-c2ccc3ncc4c(c3c2)n(-c2ccc(OC)nc2C)c(=O)n4C)cnc1C` [Example 11.7, 8-(5-Ethylamino-6-methyl-pyridin-3-yl)-1-(6-methoxy-2-methyl-pyridin-3-yl)-3-methyl-1,3-dihydro-imidazo[4,5-c]quinolin-2-one] the same measures were 3 nM and 3 nM.
As for `COc1ccc(-n2c(=O)n(C)c3cnc4ccc(-c5cnc(CO)c(OC)c5)cc4c32)c(C)n1` [Example 11.8, 8-(6-Hydroxymethyl-5-methoxy-pyridin-3-yl)-1-(6-methoxy-2-methyl-pyridin-3-yl)-3-methyl-1,3-dihydro-imidazo[4,5-c]quinolin-2-one], the IC50 in assay [1] (read-out: EPK_mTOR/IC50) is 46 nM; in assay [2] (read-out: EPK_PI3Kdelta/IC50), under 3 nM.
Turning to `CCN(C)c1ccc(-n2c(=O)n(C)c3cnc4ccc(-c5ccc(NC)nc5)cc4c32)c(C)n1` [Example 12.1, 1-[6-(Ethyl-methyl-amino)-2-methyl-pyridin-3-yl]-3-methyl-8-(6-methylamino-pyridin-3-yl)-1,3-dihydro-imidazo[4,5-c]quinolin-2-one], the IC50 in assay [1] (read-out: EPK_mTOR/IC50) is 10 nM; in assay [2] (read-out: EPK_PI3Kdelta/IC50) it was 15 nM.
For the compound `CCNc1cc(-c2ccc3ncc4c(c3c2)n(-c2ccc(N(C)CC)nc2C)c(=O)n4C)cnc1C` [Example 12.2, 8-(5-Ethylamino-6-methyl-pyridin-3-yl)-1-[6-(ethyl-methyl-amino)-2-methyl-pyridin-3-yl]-3-methyl-1,3-dihydro-imidazo[4,5-c]quinolin-2-one], the IC50 stood at 7 nM in assay [1] (read-out: EPK_mTOR/IC50) and 13 nM in assay [2] (read-out: EPK_PI3Kdelta/IC50).
For `CCOc1ccc(-c2ccc3ncc4c(c3c2)n(-c2ccc(OCCOC)nc2C)c(=O)n4C)cn1` [Example 13.1, 8-(6-Ethoxy-pyridin-3-yl)-1-[6-(2-methoxy-ethoxy)-2-methyl-pyridin-3-yl]-3-methyl-1,3-dihydro-imidazo[4,5-c]quinolin-2-one] the same measures were 49 nM and 742 nM.
In the case of `COCCOc1ccc(-n2c(=O)n(C)c3cnc4ccc(-c5cnc(N)c(C(F)(F)F)c5)cc4c32)c(C)n1` [Example 13.2, 8-(6-Amino-5-trifluoromethyl-pyridin-3-yl)-1-[6-(2-methoxy-ethoxy)-2-methyl-pyridin-3-yl]-3-methyl-1,3-dihydro-imidazo[4,5-c]quinolin-2-one], the IC50 worked out at 18 nM in assay [1] (read-out: EPK_mTOR/IC50) and 14 nM in assay [2] (read-out: EPK_PI3Kdelta/IC50).
The matching figures for `CNc1ccc(-c2ccc3ncc4c(c3c2)n(-c2ccc(OCCOC)nc2C)c(=O)n4C)cn1` [Example 13.3, 1-[6-(2-Methoxy-ethoxy)-2-methyl-pyridin-3-yl]-3-methyl-8-(6-methylamino-pyridin-3-yl)-1,3-dihydro-imidazo[4,5-c]quinolin-2-one]: 14 nM and 26 nM.
For `CCNc1cc(-c2ccc3ncc4c(c3c2)n(-c2ccc(OCCOC)nc2C)c(=O)n4C)cnc1C` [Example 13.4, 8-(5-Ethylamino-6-methyl-pyridin-3-yl)-1-[6-(2-methoxy-ethoxy)-2-methyl-pyridin-3-yl]-3-methyl-1,3-dihydro-imidazo[4,5-c]quinolin-2-one] the same measures were 6 nM and 15 nM.
